Laboratory results reported in US4874759A, “5-Hydroxyindole-3-carboxylic acid amide compounds, pharmaceutical compositions and use” (Yoshitomi Pharmaceutical Industries, Ltd., priority 1987, dated 1989).

Key:
[1] = tested on: left coronary artery; experiment: Action on coronary blood flow (perfused left coronary artery of anesthetized dog); assay type: in vivo, mongrel adult dog; settings: intracoronary, dose increasing coronary blood flow to 50% of the effect of 3 μg Nifedipine
Method: A mongrel adult dog was anesthetized by intravenous administration with sodium pentobarbital at the dose of 30 mg/kg body weight. In accordance with the method by Yago et al [Folia pharmacologica japonica, vol. 57, p. 380 (1961)], the left coronary artery was perfused and the volume of blood flow was measured. The test compounds were administered in the coronary artery at a dosage of 10 to 30 μl. The effects of the test compounds on the coronary blood flow were represented by ED50 (μg) which was determined as the dose required for increasing the coronary blood flow to the level of 50% of the effect which was attained by administering the coronary artery 3 μg of Nifedipine [dimethyl 2,6-dimethyl-4-(2-nitrophenyl)-1,4-dihydropyridine-3,5-dicarboxylate].

[2] = tested on: right vertebrartery; experiment: Action on vertebrarterial blood flow (perfused right vertebral artery of anesthetized dog); assay type: in vivo, mongrel adult dog; settings: into vertebral artery, maximum increase by 100 μg papaverine hydrochloride = 100%
Method: After mongrel adult dog was anesthetized by intravenous administration of sodium pentobarbital at the dose of 25 mg/kg body weight, the right vertebrartery was perfused and the volume of blood flow was measured. The test compounds were administered in the vertebral artery.
With the maximum increase rate in the blood flow being taken as 100% when 100 μg of papaverine hydrochloride (1-[(3,4-dimethoxyphenyl)methyl]-6,7-dimethoxyisoquinoline hydrochloride) was administered in the vertebral artery, the effects of the test compounds were represented by ED100 (μg) which denotes the dose required for attaining an increased rate of the blood flow of 100%.

[3] = biological target: T1, 5-lipoxygenase (Cavia porcellus, UniProt A0A286X958); experiment: 5-Lipoxygenase-inhibitory action (5-HETE production from arachidonic acid); assay type: biochemical; settings: 3.4 μM [1-14C] arachidonic acid, 105,000×g supernatant of guinea pig polymorph leukocyte, 30° C., 3 minutes; read-out: 50% inhibitory concentration against the production of 5-HETE
T1 construct: supernatant fraction of intraperitoneal polymorph leukocyte of guinea pigs was prepared; from tissue; host or cells: peritoneal polymorphonuclear leukocytes of male guinea pigs (casein-elicited), 105,000×g supernatant
T1 sequence (A0A286X958 1-674): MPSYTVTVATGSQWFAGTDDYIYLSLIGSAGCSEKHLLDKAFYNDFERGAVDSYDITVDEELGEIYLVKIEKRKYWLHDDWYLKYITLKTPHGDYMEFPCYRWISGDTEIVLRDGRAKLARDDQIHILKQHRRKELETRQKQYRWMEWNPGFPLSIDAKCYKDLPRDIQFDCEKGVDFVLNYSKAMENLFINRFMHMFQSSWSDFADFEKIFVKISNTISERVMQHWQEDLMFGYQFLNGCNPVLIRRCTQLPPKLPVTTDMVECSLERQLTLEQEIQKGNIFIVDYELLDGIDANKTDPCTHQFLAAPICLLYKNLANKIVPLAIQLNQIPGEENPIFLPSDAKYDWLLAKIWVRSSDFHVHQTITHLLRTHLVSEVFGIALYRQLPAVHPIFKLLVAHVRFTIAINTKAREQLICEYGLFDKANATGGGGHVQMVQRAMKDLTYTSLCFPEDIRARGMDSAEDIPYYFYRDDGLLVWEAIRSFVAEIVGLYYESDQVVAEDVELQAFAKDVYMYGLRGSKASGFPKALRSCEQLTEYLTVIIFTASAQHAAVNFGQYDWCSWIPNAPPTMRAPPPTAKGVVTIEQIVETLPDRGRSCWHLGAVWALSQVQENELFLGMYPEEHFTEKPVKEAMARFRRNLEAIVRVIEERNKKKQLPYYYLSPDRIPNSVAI
Method: In accordance with the method of Ochi et al (J. Biol. Chem., vol. 258, pp. 5754-5758 (1983)), the 105,000×g supernatant fraction of intraperitoneal polymorph leukocyte of guinea pigs was prepared, and the capability of producing 5-hydroxyeicosatetraenoic acid (5-HETE) from arachidonic acid was assayed.
Male guinea pigs weighing about 500 g were intraperitoneally administered with 1/10 volume (at the dose of 10 ml/100 g body weight) of a 2% casein solution and operated in the abdomen 16-18 hours after the administration. The intraperitoneal effusion was taken and the insdie of the abdomen was washed with a saline solution containing 10 mM phosphate buffer solution (pH 7.4) twice. The obtained effusion and the washing solution were collected and centrifuged at 150×g for five minutes. A 0.2% saline solution was added to the sediment, followed by hypotonic treatment to subject the mixed erythrocyte to hemolysis. After a 1.6% saline solution was added thereto to make the mixture isotonic, it was centrifuged in the same manner and suspended in 50 mM Hepes buffer solution (pH 8.0). The suspension was treated with supersonic waves (by Branson sonifier, model 185) and centrifuged at 10,000×g for 10 minutes. The supernatant was further centrifuged at 105,000×g for 60 minutes. The supernatant thus obtained was taken as the 5-lipoxygenase fraction which was freezed to -70° C. to be preserved. […]

[4] = Diuretic action (oral administration to rats; urine volume and electrolytes excreted within 6 hours); assay type: in vivo, Male Wistar strain rats; settings: rat, p.o., average value ± average error
Method: Male Wistar strain rats (each weighing 180 to 220 g, six animals per group) were subjected to the experiment after they had been fasted for 18 hours and further deprived of food and water for 3 hours.
After the rats were orally administered with test compounds suspended in a 0.9% saline solution at the dose of 25 ml/kg, each of them was put in a metabolic cage. The urine excreted within 6 hours after the administration was collected, and the urine volume and sodium (Na), potassium (K) and chlorine (Cl) ions were assayed. The urine sodium and potassium ions were measured by the flame spectrophotometry and the chlorine ions were measured by the chloride counter.
The test compounds were the compounds described below in Examples and the following (as applies to the following Pharmacological Experimental Examples), and the compounds numbers respectively correspond to the compound numbers described at the end of the compound names recited in Examples and the following. In the table, each of the numerals represents average value±average error and the mark * designates that the value is statistically significant as compared with the control by P<0.05 and mark ** designates that the value is statistically signficant by P<0.01.

[5] = Acute toxicity (mortality) in mice; assay type: in vivo, ddY strain mice; settings: ddY mice, 300 mg/kg

Q: For `CCCCNC(=O)c1c(C)n(CCCC)c2ccc(O)c(CN3CCCCC3)c12` [Compound (8), 1,N-Dibutyl-5-hydroxy-2-methyl-4-piperidinomethylindole-3-carboxamide], which “Coronary vasodilating action, ED50” value [1] is on record?
A: 63 µg

Q: What about the “Vertebrarterial vasodilating action, ED100” value [2] of the same molecule?
A: 58 µg

Q: For `CCCCN(CCCC)C(=O)c1c(C)n(CCc2ccccc2)c2cc(C(=O)CC)c(O)c(CN3CCCCC3)c12` [Compound (4), N,N-Dibutyl-5-hydroxy-2-methyl-1-(2-phenylethyl)-4-piperidinomethyl-6-propionylindole-3-carboxamide], which “Coronary vasodilating action, ED50” value [1] is on record?
A: 12 µg

Q: And the “Vertebrarterial vasodilating action, ED100” value [2]?
A: 63 µg

Q: And the IC50 [3]?
A: 20 µM

Q: Which “Coronary vasodilating action, ED50” value [1] does the source give for `CCCCN(CCCC)C(=O)c1c(C)n(-c2ccccc2)c2cc(C(=O)CC)c(O)c(CN3CCCCC3)c12` [Compound (25), N,N-Dibutyl-5-hydroxy-2-methyl-1-phenyl-4-piperidinomethyl-6-propionylindole-3-carboxamide] here?
A: 22 µg

Q: And the “Vertebrarterial vasodilating action, ED100” value [2]?
A: 76 µg

Q: What about the IC50 [3] of the same molecule?
A: 19 µM

Q: With `CCCCN(CCCC)C(=O)c1c(C)[nH]c2ccc(O)c(CN3CCCCC3)c12` [Compound (17), N,N-Dibutyl-5-hydroxy-2-methyl-4-piperidinomethylindole-3-carboxamide] as the molecule, how does the “Excretion of Electrolyte, Cl” value ([4]; 10.0 mg/kg) read?
A: 358 ± 25 μeq/100 g body weight/ 6 hrs.

Q: What about the “Excretion of Electrolyte, K” value ([4]; 10.0 mg/kg) of the same molecule?
A: 64 ± 4 μeq/100 g body weight/ 6 hrs.

Q: And the “Excretion of Electrolyte, Na” value ([4]; 10.0 mg/kg)?
A: 346 ± 28 μeq/100 g body weight/ 6 hrs.

Q: What about the “Excretion of Electrolyte, Na/K” value ([4]; 10.0 mg/kg) of the same molecule?
A: 5.7 ± 0.9

Q: What about the “Urine Volume” value ([4]; 10.0 mg/kg) of the same molecule?
A: 2.4 ± 0.2 ml/100 g body weight/ 6 hrs.

Q: Which “Excretion of Electrolyte, Cl” value ([4]; 10.0 mg/kg) does the source give for `CCCCNC(=O)c1c(C)[nH]c2cc(Br)c(O)c(CN3CCCCC3)c12` [Compound (10), 6-Bromo-N-butyl-5-hydroxy-2-methyl-4-piperidinomethylindole-3-carboxamide] here?
A: 379 ± 35 μeq/100 g body weight/ 6 hrs.

Q: What about the “Excretion of Electrolyte, K” value ([4]; 10.0 mg/kg) of the same molecule?
A: 73 ± 8 μeq/100 g body weight/ 6 hrs.

Q: And the “Excretion of Electrolyte, Na” value ([4]; 10.0 mg/kg)?
A: 402 ± 43 μeq/100 g body weight/ 6 hrs.

Q: What about the “Excretion of Electrolyte, Na/K” value ([4]; 10.0 mg/kg) of the same molecule?
A: 5.8 ± 0.7

Q: What about the “Urine Volume” value ([4]; 10.0 mg/kg) of the same molecule?
A: 2.6 ± 0.3 ml/100 g body weight/ 6 hrs.

Q: What does the source list for `CCCCCCn1c(C)c(C(=O)N(CCCC)CCCC)c2c(CN3CCCCC3)c(O)c(C(=O)CC)cc21` [Compound (6), N,N-dibutyl-1-hexyl-5-hydroxy-2-methyl-4-piperidinomethyl-6-propionylindole-3-carboxamide]?
A: Coronary vasodilating action, ED50 [1]: 10 µg; Vertebrarterial vasodilating action, ED100 [2]: 48 µg

Q: With `Cc1[nH]c2cc(Br)c(O)c(CN3CCCCC3)c2c1C(=O)N1CCOCC1` [Compound (2), 4-(6-Bromo-5-hydroxy-2-methyl-4-piperidinomethyl-1H-indol-3-ylcarbonyl)morpholine] as the molecule, how does the “Excretion of Electrolyte, Cl” value ([4]; 3.0 mg/kg) read?
A: 349 ± 27 μeq/100 g body weight/ 6 hrs.

Q: What about the “Excretion of Electrolyte, K” value ([4]; 3.0 mg/kg) of the same molecule?
A: 95 ± 7 μeq/100 g body weight/ 6 hrs.

Q: What about the “Excretion of Electrolyte, Na” value ([4]; 3.0 mg/kg) of the same molecule?
A: 284 ± 30 μeq/100 g body weight/ 6 hrs.

Q: What about the “Excretion of Electrolyte, Na/K” value ([4]; 3.0 mg/kg) of the same molecule?
A: 3.1 ± 0.3

Q: What about the “Urine Volume” value ([4]; 3.0 mg/kg) of the same molecule?
A: 2.0 ± 0.2 ml/100 g body weight/ 6 hrs.

Q: What about the Death of mice ([5]; intraperitoneal) of the same molecule?
A: none of them was observed to die

Q: What about the Death of mice ([5]; oral) of the same molecule?
A: none of them was observed to die
